Laboratory results: patent publication US9642886B2, “Plant based formulation for the prevention and management of metabolic syndrome by its adiponectin enhancing property” (SRM UNIVERSITY, priority 2014, dated 2017)

Test system: Metabolic Syndrome cases
Experiment: Clinical study in Metabolic Syndrome cases
Type: in vivo, human
Procedure: The study population consisted of 128 diagnosed Metabolic Syndrome cases (76 Men and 52 Women), aged 52.81±9.68 years at study entry. The cases were diagnosed as per criteria given by WHO for classification and diagnosis of Metabolic Syndrome. After preliminary screening the subjects showing association with 3 or more than 3 above factors were selected. The clinical trial was conducted in three groups— Group-I: 36 cases were treated with Orlistat (120 mg twice a day after each meals). Group-II: 44 cases were treated with Ayurvedic formulation. Group-III: 48 cases were administered Orlistat along with Ayurvedic formulation. […] Lipid profile including triglyceride was estimated by standard laboratory kits. TNF-[…], interleukin-6 was measured by ELISA kit, adiponectin by radioimmunoassay kit. CRP by kit for quantitative nephelometric determination of CRP in human serum or plasma by Turbox/Turbox analyzer and ELISA activity assay kit for Leptin level. Subjects suffering from any other disease known to affect the study parameters were excluded from the series. Upon recruitment all subjects gave informed written consent.

Q: Which Adiponectin (After 6 months) does the source give for `CCCCCCCCCCC[C@@H](C[C@@H]1OC(=O)[C@H]1CCCCCC)OC(=O)[C@H](CC(C)C)NC=O` [Conventional drug, Orlistat] here?
A: 10.04 ± 2.84 µg/mL

Q: And the “Apolipo (B)” value (After 6 months)?
A: 156.41 ± 17.11 mg/dL

Q: And the Diastolic blood pressure (After 6 months)?
A: 84.42 ± 1.98 mmHg

Q: And the Endotheline (After 6 months)?
A: 875.42 ± 171.36 pg/mL

Q: What about the Fasting blood glucose (After 6 months) of the same compound?
A: 99.43 ± 4.36 mg/dL

Q: And the HDL-c (After 6 months)?
A: 50.75 ± 3.12 mg/dL

Q: And the Interleukin-6 (After 6 months)?
A: 1.89 ± 0.75 pg/mL

Q: What about the LDL-c (After 6 months) of the same compound?
A: 109.42 ± 8.44 mg/dL

Q: And the Leptin (After 6 months)?
A: 26.44 ± 3.28 µg/L

Q: What about the Postprandial blood glucose (After 6 months) of the same compound?
A: 186.90 ± 17.42 mg/dL

Q: And the Systolic blood pressure (After 6 months)?
A: 126.90 ± 4.06 mmHg

Q: What about the TNF-α (After 6 months) of the same compound?
A: 324.85 ± 57.86 pg/mL

Q: What about the Total cholesterol (After 6 months) of the same compound?
A: 208.91 ± 27.97 mg/dL

Q: And the Triglycerides (After 6 months)?
A: 224.56 ± 37.90 mg/dL

Q: And the “hs CRP” value (After 6 months)?
A: 3.48 ± 0.89 mg/L

Q: And the “Body Mass Index (BMI)” value (Female, After 3 months)?
A: 29.68 ± 2.04

Q: And the “Body Mass Index (BMI)” value (Female, After 6 months)?
A: 28.45 ± 1.68

Q: What about the “Body Mass Index (BMI)” value (Female, Initial) of the same compound?
A: 31.14 ± 1.88

Q: And the Adiponectin (Initial)?
A: 7.82 ± 1.64 µg/mL

Q: What about the “Apolipo (B)” value (Initial) of the same compound?
A: 193.88 ± 31.64 mg/dL

Q: And the Diastolic blood pressure (Initial)?
A: 88.35 ± 2.06 mmHg

Q: And the Endotheline (Initial)?
A: 1139.73 ± 211.54 pg/mL

Q: What about the Fasting blood glucose (Initial) of the same compound?
A: 133.90 ± 8.82 mg/dL

Q: What about the HDL-c (Initial) of the same compound?
A: 43.84 ± 2.42 mg/dL

Q: What about the Interleukin-6 (Initial) of the same compound?
A: 2.35 ± 0.84 pg/mL

Q: And the LDL-c (Initial)?
A: 143.71 ± 9.13 mg/dL

Q: And the Leptin (Initial)?
A: 33.41 ± 4.35 µg/L

Q: What about the Postprandial blood glucose (Initial) of the same compound?
A: 224.81 ± 20.14 mg/dL

Q: And the Systolic blood pressure (Initial)?
A: 137.82 ± 5.15 mmHg

Q: And the TNF-α (Initial)?
A: 579.84 ± 68.36 pg/mL

Q: What about the Total cholesterol (Initial) of the same compound?
A: 243.84 ± 41.52 mg/dL

Q: What about the Triglycerides (Initial) of the same compound?
A: 371.90 ± 43.88 mg/dL

Q: And the “hs CRP” value (Initial)?
A: 5.31 ± 1.04 mg/L

Q: What about the “Body Mass Index (BMI)” value (Male, After 3 months) of the same compound?
A: 28.82 ± 1.90

Q: What about the “Body Mass Index (BMI)” value (Male, After 6 months) of the same compound?
A: 27.16 ± 1.35

Q: What about the “Body Mass Index (BMI)” value (Male, Initial) of the same compound?
A: 30.75 ± 2.17
